Measurements published in ChEMBL document CHEMBL1144828, “Isoxazolone based inhibitors of p38 MAP kinases” (J Med Chem, 2008).

Experiments:
[1] = molecular target: T1, Mitogen-activated protein kinase 14 (Homo sapiens, UniProt Q16539); experiment: Inhibition of p38-alpha MAPK
[2] = molecular target: T1, Mitogen-activated protein kinase 14; experiment: Inhibition of p38-alpha MAPK at 10 uM

T1 sequence (Q16539 whole entry): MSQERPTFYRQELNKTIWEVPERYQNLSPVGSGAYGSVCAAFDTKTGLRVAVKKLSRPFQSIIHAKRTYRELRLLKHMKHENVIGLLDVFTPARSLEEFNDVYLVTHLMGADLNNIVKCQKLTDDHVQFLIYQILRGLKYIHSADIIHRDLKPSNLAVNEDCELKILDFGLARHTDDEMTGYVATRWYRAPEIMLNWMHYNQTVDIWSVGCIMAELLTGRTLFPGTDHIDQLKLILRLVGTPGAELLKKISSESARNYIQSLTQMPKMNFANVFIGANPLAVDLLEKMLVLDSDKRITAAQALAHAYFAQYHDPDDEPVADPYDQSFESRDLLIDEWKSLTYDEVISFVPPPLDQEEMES

| IC50 [1] [nM] | inhibition [2] [%] | Structure (SMILES) |
| --- | --- | --- |
| 3830 | – | COCCOCn1oc(=O)c(-c2ccc(F)cc2)c1-c1ccncc1 |
| 1630 | – | CCn1oc(=O)c(-c2ccc(F)cc2)c1-c1ccncc1 |
| 120 | – | CC(=O)n1oc(=O)c(-c2ccc(F)cc2)c1-c1ccncc1 |
| 1400 | – | O=c1o[nH]c(-c2ccc(F)cc2)c1-c1ccncc1 |
| – | 42.2 | CC(C)n1oc(=O)c(-c2ccc(F)cc2)c1-c1ccncc1 |
| 2130 | – | O=c1on(CC2CC2)c(-c2ccncc2)c1-c1ccc(F)cc1 |
| 2500 | – | O=c1on(CCO)c(-c2ccncc2)c1-c1ccc(F)cc1 |
| 230 | – | CCNC(=O)n1oc(=O)c(-c2ccc(F)cc2)c1-c1ccncc1 |
| 2130 | – | COCn1oc(=O)c(-c2ccc(F)cc2)c1-c1ccncc1 |
| 3900 | – | CSCCn1oc(=O)c(-c2ccc(F)cc2)c1-c1ccncc1 |
| – | 11.9 | CC(C)Oc1onc(-c2ccc(F)cc2)c1-c1ccncc1 |
| – | 38.3 | O=c1on(CCN2CCCCC2)c(-c2ccncc2)c1-c1ccc(F)cc1 |
| 3830 | – | O=c1on(CC2CO2)c(-c2ccncc2)c1-c1ccc(F)cc1 (stereo unspecified) |
| – | 27.5 | CC(c1ccccc1)n1oc(=O)c(-c2ccc(F)cc2)c1-c1ccncc1 (stereo unspecified) |
| 1320 | – | CCOCCn1oc(=O)c(-c2ccc(F)cc2)c1-c1ccncc1 |
| 1150 | – | O=c1on(CCCO)c(-c2ccncc2)c1-c1ccc(F)cc1 |

Second part, the compound before the results:

| Structure (SMILES) | IC50 [1] [nM] | inhibition [2] [%] |
| --- | --- | --- |
| Fc1ccc(-c2noc(OCC3CO3)c2-c2ccncc2)cc1 (stereo unspecified) | – | 23.7 |
| COc1onc(-c2ccc(F)cc2)c1-c1ccncc1 | – | 26.5 |
| O=C(Nc1ccc(F)cc1)n1oc(=O)c(-c2ccc(F)cc2)c1-c1ccncc1 | 320 | – |
| Fc1ccc(-c2noc(OCC3CC3)c2-c2ccncc2)cc1 | – | 26.4 |
| CCOC(=O)CCNC(=O)n1oc(=O)c(-c2ccc(F)cc2)c1-c1ccncc1 | 970 | – |
| Cc1ccc(S(=O)(=O)n2oc(=O)c(-c3ccc(F)cc3)c2-c2ccncc2)cc1 | 480 | – |
| O=c1on(C(=S)Nc2ccc(F)cc2)c(-c2ccncc2)c1-c1ccc(F)cc1 | 350 | – |
| CSc1nc(-c2ccc(F)cc2)c(-c2ccncc2)n1CCCO | 813 | – |
| Oc1onc(-c2ccncc2)c1-c1ccc(F)cc1 | 390 | – |
| COCCOc1onc(-c2ccc(F)cc2)c1-c1ccncc1 | – | 14.4 |
| O=C1c2ccccc2C(=O)N1CCn1oc(=O)c(-c2ccc(F)cc2)c1-c1ccncc1 | – | 41.9 |
| OCCCOc1onc(-c2ccc(F)cc2)c1-c1ccncc1 | – | 9.8 |
| OCCOc1onc(-c2ccc(F)cc2)c1-c1ccncc1 | – | 14.7 |
| COCOc1onc(-c2ccc(F)cc2)c1-c1ccncc1 | – | 27.8 |
| CCOc1onc(-c2ccc(F)cc2)c1-c1ccncc1 | – | 13.6 |
